Measurements as given in patent US6372919B1 (DOV Pharmaceutical, Inc., priority 2001, dated 2002).

Tests used:
[1] = molecular target: T1, serotonin transporter binding site, rat forebrain membranes (Rattus norvegicus, UniProt P31652); assay: Serotonin Transporter Binding Assay ([3H]-citalopram); conditions: comparison of Table 2 Ki values
T1 construct: The receptor source was rat forebrain membranes; from tissue; host or cells: rat forebrain membranes
Method: Reactions were carried out in 50 mM TRIS-HCl (pH 7.4) containing 120 mM NaCl and 5 mM KCl at 25° C. for 60 minutes. The reaction was terminated by rapid vacuum filtration onto glass fiber filters. Radioactivity trapped in the filters was determined using liquid scintillation spectrometry and compared to control values in order to ascertain any interactions of test compound with the serotonin transporter binding site.

[2] = molecular target: norepinephrine uptake site (norepinephrine transporter), rat forebrain membranes (Rattus norvegicus, UniProt Q9WTR4); conditions: comparison of Table 1 Ki values
Method: Reactions were carried out in 50 mM TRIS-HCl (pH 7.4), containing 300 mM NaCl and 5 mM KCl at 0° C. to 4 ° C for 4 hours. The reaction was terminated by rapid vacuum filtration onto glass fiber filters. Radioactivity trapped in the filters was determined and compared to control values in order to ascertain the interactions of the test compound with the norepinephrine uptake site.

T1 sequence (P31652 whole entry): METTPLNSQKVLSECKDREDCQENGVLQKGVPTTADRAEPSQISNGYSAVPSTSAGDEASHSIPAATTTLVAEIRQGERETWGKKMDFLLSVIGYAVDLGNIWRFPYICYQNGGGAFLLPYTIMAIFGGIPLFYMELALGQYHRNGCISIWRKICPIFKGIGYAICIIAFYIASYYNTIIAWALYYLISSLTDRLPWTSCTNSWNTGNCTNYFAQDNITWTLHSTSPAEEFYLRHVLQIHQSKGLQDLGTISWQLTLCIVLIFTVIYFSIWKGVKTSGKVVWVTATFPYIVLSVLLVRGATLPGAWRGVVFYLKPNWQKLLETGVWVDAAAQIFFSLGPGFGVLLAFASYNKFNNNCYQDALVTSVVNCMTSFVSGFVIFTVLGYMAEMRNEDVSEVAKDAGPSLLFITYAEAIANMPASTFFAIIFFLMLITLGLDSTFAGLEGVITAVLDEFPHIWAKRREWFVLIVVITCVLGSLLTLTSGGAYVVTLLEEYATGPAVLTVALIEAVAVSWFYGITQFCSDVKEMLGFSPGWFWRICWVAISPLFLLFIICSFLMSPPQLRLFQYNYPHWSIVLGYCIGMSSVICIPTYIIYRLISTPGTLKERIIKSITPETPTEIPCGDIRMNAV
norepinephrine uptake site (norepinephrine transporter), rat forebrain membranes, sequence (Q9WTR4 1-597): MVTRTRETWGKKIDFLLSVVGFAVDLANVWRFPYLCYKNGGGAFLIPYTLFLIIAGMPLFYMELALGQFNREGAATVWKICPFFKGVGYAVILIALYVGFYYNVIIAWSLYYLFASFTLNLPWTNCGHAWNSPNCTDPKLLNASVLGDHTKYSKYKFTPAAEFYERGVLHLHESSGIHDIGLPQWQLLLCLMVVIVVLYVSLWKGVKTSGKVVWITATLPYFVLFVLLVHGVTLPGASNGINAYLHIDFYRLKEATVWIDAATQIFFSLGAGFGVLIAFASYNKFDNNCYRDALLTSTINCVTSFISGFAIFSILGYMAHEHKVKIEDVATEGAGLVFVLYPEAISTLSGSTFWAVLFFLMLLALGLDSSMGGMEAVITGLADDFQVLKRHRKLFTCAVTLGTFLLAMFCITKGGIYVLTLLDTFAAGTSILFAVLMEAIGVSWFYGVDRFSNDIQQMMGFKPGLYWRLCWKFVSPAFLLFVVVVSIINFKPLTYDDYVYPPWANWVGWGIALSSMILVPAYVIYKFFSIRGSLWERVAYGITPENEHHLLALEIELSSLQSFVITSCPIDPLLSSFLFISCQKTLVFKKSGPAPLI

Cl.Clc1ccc([C@@]23CNC[C@@H]2C3)cc1Cl (single isomer, unassigned) [(+)-1-(3,4-dichlorophenyl)-3-azabicyclo[3.1.0]hexane hydrochloride]
affinity for the serotonin uptake site compared with (±)-1-(3,4-dichlorophenyl)-3-azabicyclo[3.1.0]hexane HCl [1]: significantly greater affinity | affinity for the norepinephrine uptake site compared with (±)-1-(3,4-dichlorophenyl)-3-azabicyclo[3.1.0]hexane HCl [2]: significantly greater affinity
